US4594345A, “Methylflavone-8-carboxylates” (Nippon Shinyaku Co. Ltd., priority 1982, dated 1986)

Assays:
[1] = system: passive cutaneous anaphylaxis (PCA); assay: Passive cutaneous anaphylaxis assay (PCA) in rats; assay type: in vivo, rat (Wister strain); details: Rattus norvegicus, po, 1 h, oral 10 mg/kg, one hour before antigen, read-out: PCA Inhibition Ratio %
Protocol: (§1) The effect of the compounds (I) of the present invention in the treatment of asthma and allergic diseases were evaluated by a passive cutaneous anaphylaxis assay (PCA) in rats and by measuring anti-SRS-A action using ileus of guinea pigs.
(i) Antiserum abundant in homocytotropic antibody is prepared by the same method as Tada and Okumura did (cf. Journal of Immunology, volume 106, page 1002, […]). Thus, one mg (calculated as an amount of protein) of DNP-As (2,4-dinitrophenyl-coupled ascaris extract) prepared by methods of Strejan and Campbell (Journal of Immunology, volume 98, page 893, 1971) and of Eisen (Journal of American Chemical Society, volume 85, page 4593, 1953) and […] pertussis vaccine are administered to each paw of Wister strain rats (180 to 200 grams body weights) by dividing the dose by four. Five days later, 0.5 mg of DNP-As is adminstered into muscle of back. Eight days later from the initial immunization, blood is taken from descending aorta under anesthetizing with ether, the resulting serum is stored at -80° C. and is melted before use.
(ii) Effect of tested compounds is investigated as follows:
Anti-serum obtained by the method (i) is diluted with physiological saline solution double by double successively and 0.05 ml of each diluted solution is administered into back of Wister strain rats (140 to 160 grams body weight) subcutaneously. After 72 hours, a solution of 2 mg (calculated as protein) of DNP-As and 2.5 mg of Evand Blue dissolved in 1 ml of physiological saline solution is administered intravenously at a dose of 5 ml/kg. After thirty minutes from antigen solution administration, the animals are killed and diameters of blue spots appeared at the place where antiserum is administered are measured. The PCA test is conducted by the same method as already described using a diluted solutions of antiserum which always show 10 mm or more of spot diameters and the effect of the test compounds is judged. Thus, antiserum diluted solutions are administered to two places in back. Test compounds are administered orally at the dose of 10 mg/kg one hour before administration of antigen solution. From the skin of reacted parts of killed animals, leaked or emitted dyestuff is extracted [cf. Baeck and Steinetz: J. Pharmacol. Exp. Ther., Vol. 131, page 400 (1961)] and the amount of the dyestuff is measured. The inhibition ratio is calculated by the following expression: [formula] in which R' is an amount of dyestuff in the group treated with the test compounds and A is that in the control group.

[2] = system: SRS-A; assay: Anti-SRS-A action (SRS-A induced shrinkage of guinea pig ileus); design: species or system guinea pig (Hartley strain male); details: treated five minutes before SRS-A (20 units), 5 min; for SRS-A Inhibition Ratio % 10^-6 M: 1 µM; for SRS-A Inhibition Ratio % 10^-7 M: 0.1 µM
Protocol: as §1
Anti-SRS-A action (An anti-action against slow reacting substance of anaphylaxie)
Hartley strain male guinea pigs (300 to 350 grams body weight) are killed and 1.0 to 1.5 cm of ileus is immediately excised from ileocecal parts and is suspended in 10 ml of Tyrode solution (95% O2 -5% CO2 saturation) containing 10^-7 g/ml of atropine and 10^-6 g/ml of pyrilamine. SRS-A (20 units) (the amount of SRS-A showing the same shrinkage as 5 ng of histamine is defined as one unit) prepared by using sensitized guinea pig lung is given to cause shrinkage there. Then antagonistic action of test compounds treated five minutes ago against the shrinkage is measured and recorded via isotonic transducer. [formula] in which A' is a height of shrinkage of SRS-A + test compound and A is that of SRS-A.

SMILES | inhibition in vivo at 10 mg/kg [1] [%] | SRS-A Inhibition Ratio % 10^-6 M [2] [%] | SRS-A Inhibition Ratio % 10^-7 M [2] [%]
Cc1c(-c2ccccc2Cl)oc2c(C(=O)OCCO)cccc2c1=O [Example 69, beta-hydroxyethyl 2'-chloro-3-methylflavone-8-carboxylate] | 14.3 | 55.3 | 9.8
CCCCCc1ccc(-c2oc3c(C(=O)OCC)cccc3c(=O)c2C)cc1 [Example 59, ethyl 3-methyl-4'-n-pentylflavone-8-carboxylate] | 19.4 | 38.1 | 9.8
COc1cccc(-c2oc3c(C(=O)O)cccc3c(=O)c2C)c1OC [Example 23, 2',3'-dimethoxy-3-methylflavone-8-carboxylic acid] | 19.5 | 24.0 | 6.2
CCN(CC)C(=O)c1cccc2c(=O)c(C)c(-c3ccc(OC)c(OC)c3OC)oc12 [Example 30, 2',3',4'-trimethoxy-3-methylflavone-8-carboxylic acid N,N-diethylamide] | 16.3 | 31.0 | 18.0
CCNC(=O)c1cccc2c(=O)c(C)c(-c3ccc(OC)cc3)oc12 [Example 15, 4'-methoxy-3-methylflavoen-8-carboxylic acid N-ethylamide] | 19 | 41.9 | 30.3
CCN(CC)C(=O)c1cccc2c(=O)c(C)c(-c3ccc(Cl)cc3)oc12 [Example 72, 4'-chloro-3-methylflavone-8-carboxylic acid N,N-diethylamide] | 16.3 | 42.1 | 7.5
CCOC(=O)c1cccc2c(=O)c(C)c(-c3ccc(Cl)cc3)oc12 [Example 71, ethyl 4'-chloro-3-methylflavone-8-carboxylate] | 36.9 | 10.3 | 6.0
CCOc1ccccc1-c1oc2c(C(=O)O)cccc2c(=O)c1C [Example 16, 2'-ethoxy-3-methylflavone-8-carboxylic acid] | 18.6 | 14.8 | 10.4
CCCCN(CC)C(=O)c1cccc2c(=O)c(C)c(-c3ccc(C)cc3C)oc12 [Example 43, 2',3,4'-trimethylflavone-8-carboxylic acid N-n-butyl-N-ethylamide] | 18.8 | 68.1 | 23.4
Cc1c(-c2ccc(C(C)C)cc2)oc2c(C(=O)N3CCCCC3)cccc2c1=O [Example 54, 4'-isopropyl-3-methylflavone-8-carboxylic acid N,N-pentamethylene amide] | 13 | 69.0 | 38.6
COC(=O)c1cccc2c(=O)c(C)c(-c3ccccc3)oc12 [Example 8, Methyl 3-methylflavone-8-carboxylate] | 17.4 | 64.9 | 45.0
CCNC(=O)c1cccc2c(=O)c(C)c(-c3ccc(C(C)C)cc3)oc12 [Example 51, 4'-isopropyl-3-methylflavone-8-carboxylic acid N-ethylamide] | 19 | 75.0 | 17.5
CCCCCc1ccc(-c2oc3c(C(=O)N(CC)CC)cccc3c(=O)c2C)cc1 [Example 60, 3-methyl-4'-n-pentylflavone-8-carboxylic acid N,N-diethylamide] | 13.4 | 100 | 44.9
